US7012085B2, “1,3 disubstituted pyrrolidines as α-2-adrenoceptor antagonists” (Novartis AG, priority 2000, dated 2006)

How the values were obtained:
[1] = test system: loxapine-induced catalepsy; experiment: loxapine-induced catalepsy in rats; format: in vivo; details: 0.3-3 mg/kg s.c.
Description: Kalkman H. O. et al., Br. J. Pharmacol. 124:1550-1556 (1998)] at doses of about 0.3 to about […] s.c.

[2] = test system: amphetamine induced locomotion; experiment: amphetamine induced locomotion in rats; format: in vivo
Description: The compound or the solvent are administered at t=−30 min.

## COc1ccccc1[C@H]1CCN(Cc2ccc3c(c2)OCCO3)C1 [(R)-1-(2,3,-dihydro-benzo-[1,4]dioxin-6-ylmethyl)-3-(2-methoxyphenyl)pyrrolidine]
[1]
  inhibition of catalepsy: long lasting, dose-dependent inhibition of catalepsy
[2]; rats, 1, 3 and 10 mg/kg s.c.
  reduction of locomotion: dose-dependently reduce locomotion

## COc1ccccc1[C@H]1CCN(Cc2ccc(=O)n(C(C)C)c2)C1 [(R)-1-isopropyl-5-[3-(2-methoxyphenyl)pyrrolidin-1-ylmethyl]-1H-pyridin-2-one]
[1]
  inhibition of catalepsy: long lasting, dose-dependent inhibition of catalepsy
[2]; rats, 0.1, 0.3 and 1 mg/kg s.c.
  reduction of locomotion: dose-dependently reduce locomotion
